Experimental data: patent US7229630B2, “Stabilized formulations of alpha adrenergic receptor antagonists and the uses thereof” (Novalar Pharmaceuticals, Inc., priority 2002, dated 2007)
Structures can show the parent of a compound that is named as a salt.

Assay: Effect of additives on stability at 60° C. (HPLC)
Assay type: physicochemical
Conditions: for Rate Constant: zero-order
Description: The drug is monitored at a detection wavelength of 232 nm.
The additives in this study are selected from five groups of injectable excipients namely, tonicity modifiers (NaCl and d-mannitol), metal chelators (EDTA), antioxidants (sodium metabisulfite), complexing agents (α-cyclodextrin and niacinamide) and solvents (glycerol and polypropylene glycol). A tonicity modifier is required for adjusting the phentolamine mesylate solution to isotonic. […] Complexing agents were applied in the hope that a possible formation of an inclusion complex (by α-cyclodextrin) or stacking complex (by niacinamide) with phentolamine would modify the rate of hydrolytic degradation of the drug substance. Solvents were added to reduce the dielectric constant of the vehicle and were intended to slow the rate of degradation due to solvent polarity.
The pH value of the solutions was readjusted to pH 3.5, as required.
The 25% glycerol (25 g in 100 ml total volume with water) and 25% polypropylene glycol (25 g in 100 ml total volume with water) solutions had their buffer strength adjusted by addition of acetic acid followed by addition of 2 N NaOH for pH adjustment to pH 3.5 followed by addition of the drug to 0.1 mg/ml.
All samples were placed in 10 ml glass serum vials, stoppered with rubber closures with an inert coating (Daikyo Flurotec by WEST Pharmaceutical), and sealed with flip-top caps after sampling. Vials were placed at 60° C. after the weights were recorded.
Sampling occurred at the initial time point and on days 2, 7, and 14. Vials were weighed, sampled, sealed, re-weighed, and replaced under the selected storage condition until testing at the subsequent time point. Records indicate no significant weight loss during storage.

[1] = NaCl 50 mg/ml, sodium acetate pH 3.5, 60° C., Day 2
[2] = NaCl 50 mg/ml, sodium acetate pH 3.5, 60° C., Day 7
[3] = NaCl 50 mg/ml, sodium acetate pH 3.5, 60° C., Day 14
[4] = Niacinamide 50 mg/ml, sodium acetate pH 3.5, 60° C., Day 0
[5] = Niacinamide 50 mg/ml, sodium acetate pH 3.5, 60° C., Day 2
[6] = Niacinamide 50 mg/ml, sodium acetate pH 3.5, 60° C., Day 7
[7] = Niacinamide 50 mg/ml, sodium acetate pH 3.5, 60° C., Day 14
[8] = No additive, pH 3.5, 60° C., Day 0
[9] = No additive, pH 3.5, 60° C., Day 2
[10] = No additive, pH 3.5, 60° C., Day 7
[11] = No additive, pH 3.5, 60° C., Day 14
[12] = Sodium metabisulfite 0.5 mg/ml, sodium acetate pH 3.5, 60° C., Day 0
[13] = Sodium metabisulfite 0.5 mg/ml, sodium acetate pH 3.5, 60° C., Day 7
[14] = Sodium metabisulfite 0.5 mg/ml, sodium acetate pH 3.5, 60° C., Day 14
[15] = d-Mannitol 40 mg/ml, sodium acetate pH 3.5, 60° C., Day 0
[16] = d-Mannitol 40 mg/ml, sodium acetate pH 3.5, 60° C., Day 2
[17] = d-Mannitol 40 mg/ml, sodium acetate pH 3.5, 60° C., Day 7
[18] = d-Mannitol 40 mg/ml, sodium acetate pH 3.5, 60° C., Day 14

Phentolamine Concentration [1]: 98 µg/mL
Phentolamine Purity [1]: 99 % Peak Area
Phentolamine Concentration [2]: 80 µg/mL
Phentolamine Purity [2]: 89 % Peak Area
Phentolamine Concentration [3]: 74 µg/mL
Phentolamine Purity [3]: 85 % Peak Area
Phentolamine Concentration [4]: 90 µg/mL
Phentolamine Purity [4]: 99 % Peak Area
Phentolamine Concentration [5]: 90 µg/mL
Phentolamine Purity [5]: 100 % Peak Area
Phentolamine Concentration [6]: 78 µg/mL
Phentolamine Purity [6]: 93 % Peak Area
Phentolamine Concentration [7]: 92 µg/mL
Phentolamine Purity [7]: 90 % Peak Area
Phentolamine Concentration [8]: 90 µg/mL
Phentolamine Purity [8]: 99 % Peak Area
Phentolamine Concentration [9]: 92 µg/mL
Phentolamine Purity [9]: 98 % Peak Area
Phentolamine Concentration [10]: 82 µg/mL
Phentolamine Purity [10]: 98 % Peak Area
Phentolamine Concentration [11]: 77 µg/mL
Phentolamine Purity [11]: 97 % Peak Area
Phentolamine Purity (Polypropylene glycol 25% w/v, sodium acetate pH 3.5, 60° C., Day 0): 93 % Peak Area
Phentolamine Purity (Polypropylene glycol 25% w/v, sodium acetate pH 3.5, 60° C., Day 2): 97 % Peak Area
Phentolamine Purity (Polypropylene glycol 25% w/v, sodium acetate pH 3.5, 60° C., Day 7): 93 % Peak Area
Phentolamine Purity (Polypropylene glycol 25% w/v, sodium acetate pH 3.5, 60° C., Day 14): 90 % Peak Area
Phentolamine Concentration [12]: 97 µg/mL
Phentolamine Purity [12]: 97 % Peak Area
Phentolamine Purity (Sodium metabisulfite 0.5 mg/ml, sodium acetate pH 3.5, 60° C., Day 2): 99 % Peak Area
Phentolamine Concentration [13]: 84 µg/mL
Phentolamine Purity [13]: 95 % Peak Area
Phentolamine Concentration [14]: 74 µg/mL
Phentolamine Purity [14]: 92 % Peak Area
Phentolamine Concentration [15]: 98 µg/mL
Phentolamine Purity [15]: 96 % Peak Area
Phentolamine Concentration [16]: 96 µg/mL
Phentolamine Purity [16]: 97 % Peak Area
Phentolamine Concentration [17]: 98 µg/mL
Phentolamine Purity [17]: 96 % Peak Area
Phentolamine Concentration [18]: 91 µg/mL
Phentolamine Purity [18]: 97 % Peak Area
impact of additive on stability (d-Mannitol and disodium EDTA, based on the rate constant, 60° C.): improve stability
impact of additive on recovery vs no-additive control (sodium metabisulfite, NaCl, glycerol, polypropylene glycol and niacinamide, 60° C.): negative impact on the recovery
Phentolamine Purity (α-Cyclodextran 50 mg/ml, sodium acetate pH 3.5, 60° C., Day 0): 98 % Peak Area
Phentolamine Purity (α-Cyclodextran 50 mg/ml, sodium acetate pH 3.5, 60° C., Day 2): 99 % Peak Area
Phentolamine Purity (α-Cyclodextran 50 mg/ml, sodium acetate pH 3.5, 60° C., Day 7): 98 % Peak Area
Phentolamine Purity (α-Cyclodextran 50 mg/ml, sodium acetate pH 3.5, 60° C., Day 14): 98 % Peak Area
Phentolamine Concentration (α-Cyclodextrin 50 mg/ml, sodium acetate pH 3.5, 60° C., Day 2): 99 µg/mL
Phentolamine Concentration (α-Cyclodextrin 50 mg/ml, sodium acetate pH 3.5, 60° C., Day 7): 96 µg/mL
Phentolamine Concentration (α-Cyclodextrin 50 mg/ml, sodium acetate pH 3.5, 60° C., Day 14): 94 µg/mL
impact of additive on stability (α-cyclodextrin, based on purity value, 60° C.): negligible
Compound: Cc1ccc(N(CC2=NCCN2)c2cccc(O)c2)cc1 [Phentolamine Mesylate, phentolamine mesylate]
Rate Constant (EDTA 0.7 mg/ml, sodium acetate pH 3.5, 60° C.): 0.438 µg/mL/day
Rate Constant (Glycerol 25% w/v, sodium acetate pH 3.5, 60° C.): 0.726 µg/mL/day
Rate Constant (NaCl 50 mg/ml, sodium acetate pH 3.5, 60° C.): 1.663 µg/mL/day
Rate Constant (Niacinamide 50 mg/ml, sodium acetate pH 3.5, 60° C.): -0.026 µg/mL/day
Rate Constant (No additive, pH 3.5, 60° C.): 1.027 µg/mL/day
Rate Constant (Polypropylene glycol 25% w/v, sodium acetate pH 3.5, 60° C.): 1.019 µg/mL/day
Rate Constant (Sodium metabisulfite 0.5 mg/ml, sodium acetate pH 3.5, 60° C.): 1.903 µg/mL/day
Rate Constant (d-Mannitol 40 mg/ml, sodium acetate pH 3.5, 60° C.): 0.416 µg/mL/day
Rate Constant (α-Cyclodextrin 50 mg/ml, sodium acetate pH 3.5, 60° C.): 0.501 µg/mL/day
